According to US9945841B2, “Cell cycle measuring method based on an electrochemical method” (INDUSTRY-UNIVERSITY COOPERATION FOUNDATION SOGANG UNIVERSITY, priority 2011, dated 2018):

Assays:
Type in all cases: cell-based, rat
[1] = tested on: phosphohistone (p-HH^3); test: Western blot of synchronized PC12 cells, G2/M-phase specific protein p-HH3; details: Western blot of G1/S- or G2/M-blocked PC12 cells (FIG. 3d)
Protocol: (§1) The cell-immobilized electrode was treated with 2 mM thymidine in culture medium (RPMI 1640) for 18 hrs, followed by an 8 hrs release (replaced by fresh medium), and then again with 2 mM thymidine for another 18 hrs to block cells in G1/S-phase (FIG. 1c). Similarly, another cell-immobilized electrode was treated initially with 2 mM thymidine as mentioned before for 18 hrs, followed by a 4 hrs release (replaced by fresh medium), and then with 100 ng/ml of nocodazole for another 10 h to block cells in G2/M-phase (FIG. 1c). Therefore, the working electrodes were prepared for electrochemical signal analysis of the cells in different phases of the cell cycle. Furthermore, for the time-dependent progression of G1/S-phase towards G2/M-phase, G1/S-blocked cells were released in fresh medium containing 10% FBS for several hours to perform electrochemical measurements. The synchronized PC12 cell pellet was solubilized for 15 min at 4° C. in lysis buffer. Lysates were centrifuged at 13,000 g for 30 min at 4° C. in order to remove insoluble material. The supernatant was then collected, and the protein concentration was determined using BCA protein assay reagent (Pierce Chemicals). […]

[2] = tested on: PC12 cells; test: FACS cell-cycle distribution of on-chip synchronized cells; details: 2 mM thymidine 18 hrs
Protocol: (§2) A silicon-based gold electrode was first cleaned with freshly prepared piranha solution (1:3 mixture of 30% H2O2 and concentrated H2SO4) for 5 min and then rinsed thoroughly with double-distilled water. The electrode was then carefully polished by sonication in absolute alcohol and double-distilled water for 5 min. Finally, the electrode was electrochemically cleaned in 0.5 M H2SO4 until a stable cyclic voltammogram was obtained and then dried with purified nitrogen. After the pretreatment, a well ordered oligopeptide (RGD-MAP-C) was fabricated on the freshly cleaned gold electrode as reported in our previous work (15). For the electrochemical measurements, a 2 cm×1 cm×0.5 cm (width×length×height) cell chip chamber was fabricated by fixing a plastic chamber (Lab-Tek®, Thermo fisher scientific, USA) to the Au working electrode using PDMS (Polydimethylsiloxane). Afterward, rat pheochromocytoma (PC12) cells were seeded on the electrode at a density of 2×10^5 cells/chip and then immobilized via RGD-integrin interaction for 24 hrs in a standard cell culture environment. The cell-immobilized electrode was treated with 2 mM thymidine in culture medium (RPMI 1640) for 18 hrs, followed by an 8 hrs release (replaced by fresh medium), and then again with 2 mM thymidine for another 18 hrs to block cells in G1/S-phase (FIG. 1c). […]

[3] = tested on: PC12 cells; test: Differential pulse voltammetry (DPV) of cells on Au/RGD-MAP-C cell chip; details: PC12 cells on Au electrode; double thymidine block; PBS 0.01 M pH 7.4; vs Ag/AgCl (FIG. 2b)
Protocol: as §2

[4] = tested on: cyclin B1; test: Western blot of synchronized PC12 cells, cyclin B1; details: Western blot of G1/S- or G2/M-blocked PC12 cells (FIG. 3d)
Protocol: as §1

SMILES	p-HH^3 expression [1]	cells synchronized in G2/M-phase ([2]; 4 hrs release, 100 ng/ml nocodazole 10 h, FACS (FIG. 3c)) [%]	DPV peak potential of G1/S-phase blocked cells [3]	cyclin B1 expression [4]	cells fixed in G1/S-phase ([2]; 8 hrs release, FACS (FIG. 3b))
COC(=O)Nc1nc2ccc(C(=O)c3cccs3)cc2[nH]1 [nocodazole]	expressed	~72			
Cc1cn([C@H]2C[C@H](O)[C@@H](CO)O2)c(=O)[nH]c1=O [thymidine, Thymidine]	absent		+50 mV	expressed dominantly	Approximately 75%
